The values below come from patent US7344850B2, “Identification of active-site inhibitors of glycosyltransferases using a generalizable high-throughput screen” (Princeton University, priority 2003, dated 2008).

SMILES strings stand for the structures. Where two headings read alike, the source gives them in different places. Bounds are passed on as bounds.

The target of assay [1] is T1, MurG (Escherichia coli, UniProt P17443). Put plainly: fluorescence polarization displacement assay with labeled donor F1. The format is binding, E. coli. The following applies: for Signal change at 25 μM (drop in fluorescence polarization): 25 μM competitor; for Kd: read-out: Dissociation constants. Background: Fluorescence polarisation rises when a labelled molecule tumbles more slowly, as on binding a larger partner.

In assay [2] the target is T1, MurG. The following applies: biotin-capture assay, C10-Lipid I acceptor; cited from earlier work.
In assay [3] the target is T1, MurG. Put plainly: radiometric kinetic assay (incorporation of 14C-GlcNAc into Lipid II), secondary screen and IC50. In kind it is biochemical, E. coli. The following applies: for inhibition pattern with respect to UDP-GlcNAc: kinetic analysis.
For a further assay, the target named is T2, OGT (Homo sapiens, UniProt O15294).
T2 construct: His tag; made in house; host or cells: E. coli BL21 (DE3) (Novagen)
T2 sequence (O15294 51-920 isoform O15294-2 limits assumed): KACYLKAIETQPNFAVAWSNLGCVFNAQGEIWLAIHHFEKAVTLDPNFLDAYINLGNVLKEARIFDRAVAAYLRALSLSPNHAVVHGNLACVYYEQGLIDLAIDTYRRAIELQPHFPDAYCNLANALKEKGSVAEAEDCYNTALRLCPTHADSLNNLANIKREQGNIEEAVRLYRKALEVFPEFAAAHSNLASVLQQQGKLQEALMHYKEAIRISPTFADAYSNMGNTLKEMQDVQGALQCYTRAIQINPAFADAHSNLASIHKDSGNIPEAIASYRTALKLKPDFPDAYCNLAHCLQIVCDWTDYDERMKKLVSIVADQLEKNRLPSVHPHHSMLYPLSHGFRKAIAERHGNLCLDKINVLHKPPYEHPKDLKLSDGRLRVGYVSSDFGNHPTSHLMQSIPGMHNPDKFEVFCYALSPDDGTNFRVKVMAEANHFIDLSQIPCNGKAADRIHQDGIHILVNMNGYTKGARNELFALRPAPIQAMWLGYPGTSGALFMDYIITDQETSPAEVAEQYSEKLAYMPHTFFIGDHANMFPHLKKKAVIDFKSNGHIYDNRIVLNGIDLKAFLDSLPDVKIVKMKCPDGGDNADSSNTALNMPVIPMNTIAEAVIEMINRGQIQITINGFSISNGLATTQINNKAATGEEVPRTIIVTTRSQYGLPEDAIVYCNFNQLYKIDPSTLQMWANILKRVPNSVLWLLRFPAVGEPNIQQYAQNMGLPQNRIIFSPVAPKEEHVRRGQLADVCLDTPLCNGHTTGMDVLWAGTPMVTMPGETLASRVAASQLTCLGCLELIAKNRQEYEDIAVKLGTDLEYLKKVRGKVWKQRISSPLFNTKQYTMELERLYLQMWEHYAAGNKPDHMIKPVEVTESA
Put plainly: Assay for OGT. In kind it is biochemical. How it is done:
The mitochondrial splice variant of OGT, minus the first 50 amino acids, was cloned into pET 32b, and expressed from Novagen BL21 (DE3) cells. The pellet was lysed with B-PER (Pierce) and rLysozyme (Novagen) and the soluble fraction was purified using His-Bind Resin (Novagen). Assay reaction buffer was 10 mM Tris pH 7.4 with 100 μg/mL BSA. […] Inhibitors tested were added in 0.5 μL of DMSO and the final reaction volume was 20 μL. The reactions were quenched after 50 min at room temperature with 10 μL of formic acid and spotted onto phosphocellulose (Whatman P81) paper disks. The disks were washed for 3×5 min with 1% phosphoric acid, 1 min with acetone and dried before counting. The samples were measured by liquid scintillation counting.

The next assay has as its target PBP1b (Escherichia coli, UniProt P02919). Put plainly: Assays for transglycosylase PBP1b. The format is biochemical. How it is done:
The protein was purified as described. Chen, L., Men, H., Ha, S., Ye, X.-Y., Brunner, L., Hu, Y., Walker, S. Biochemistry 2002; Tetrahedron 58, 6585 (2002). Assays were carried out by separately incubating varying amounts of ^14C-GlcNAc-labeled C35 Lipid II (specific activity=273 cpm/pmol) and inhibitors in eppendorf tubes containing 9 μL of buffer (50 mM HEPES at pH 7.5, 10 mM CaCl2, 1000 U/mL penicillin G, 0.2 mM decyl PEG, and 11% DMSO), and 1 μL PBP1b (from a solution freshly prepared by diluting the 50% glycerol stock 20-fold into 5 mM Tris buffer, pH 8.0, containing 8 mM decyl PEG) for 10 min. Reactions were started by adding 1 μL of the above PBP1b mixture to the substrate solution, and were typically stopped after 15 min by adding 10 μL ice cold 10 mM Tris (pH 8.0) containing 0.2% Triton X-100. Reactions were left on ice until spotted on cellulose chromatography paper (3M Whatman chromatography paper). Products and starting material were separated following the works of Anderson et al. using chromatography (isobutyric acid: 1N NH4OH=5:3) and quantitated by scintillation counting. Biochemistry 53, 881 (1965).

Another assay has as its target GtfB (Amycolatopsis orientalis, UniProt P96559). Put plainly: biochemical.

T1 sequence (P17443 whole entry): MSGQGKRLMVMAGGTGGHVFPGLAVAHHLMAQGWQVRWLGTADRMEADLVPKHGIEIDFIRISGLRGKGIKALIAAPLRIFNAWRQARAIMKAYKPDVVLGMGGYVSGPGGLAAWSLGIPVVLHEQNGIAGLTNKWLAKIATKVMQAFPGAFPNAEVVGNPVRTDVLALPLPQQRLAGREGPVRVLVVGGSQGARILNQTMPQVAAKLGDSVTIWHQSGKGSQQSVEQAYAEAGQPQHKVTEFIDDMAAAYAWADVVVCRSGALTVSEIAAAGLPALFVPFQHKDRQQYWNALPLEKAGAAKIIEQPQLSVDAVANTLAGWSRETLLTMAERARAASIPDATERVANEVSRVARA
PBP1b, sequence (P02919 whole entry): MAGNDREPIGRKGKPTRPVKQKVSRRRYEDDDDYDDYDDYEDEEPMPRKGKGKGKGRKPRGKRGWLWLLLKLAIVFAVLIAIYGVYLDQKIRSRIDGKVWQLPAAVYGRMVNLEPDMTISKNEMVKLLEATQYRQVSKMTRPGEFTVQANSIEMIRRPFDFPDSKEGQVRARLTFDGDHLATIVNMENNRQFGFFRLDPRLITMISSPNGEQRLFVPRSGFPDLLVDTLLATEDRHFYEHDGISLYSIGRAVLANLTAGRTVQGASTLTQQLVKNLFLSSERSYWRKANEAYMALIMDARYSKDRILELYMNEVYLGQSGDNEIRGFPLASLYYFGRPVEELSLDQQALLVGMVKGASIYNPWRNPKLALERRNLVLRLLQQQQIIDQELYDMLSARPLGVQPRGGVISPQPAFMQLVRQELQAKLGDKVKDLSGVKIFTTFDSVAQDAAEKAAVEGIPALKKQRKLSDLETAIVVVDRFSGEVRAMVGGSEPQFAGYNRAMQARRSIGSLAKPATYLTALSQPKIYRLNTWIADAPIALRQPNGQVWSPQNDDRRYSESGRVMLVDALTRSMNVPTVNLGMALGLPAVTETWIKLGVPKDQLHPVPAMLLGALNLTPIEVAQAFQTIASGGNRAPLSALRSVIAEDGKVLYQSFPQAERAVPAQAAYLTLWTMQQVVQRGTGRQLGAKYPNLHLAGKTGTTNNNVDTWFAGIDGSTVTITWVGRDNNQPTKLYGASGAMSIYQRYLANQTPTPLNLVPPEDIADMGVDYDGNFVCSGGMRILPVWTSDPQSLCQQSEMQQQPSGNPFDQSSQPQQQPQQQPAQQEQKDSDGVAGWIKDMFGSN
GtfB, sequence (P96559 whole entry): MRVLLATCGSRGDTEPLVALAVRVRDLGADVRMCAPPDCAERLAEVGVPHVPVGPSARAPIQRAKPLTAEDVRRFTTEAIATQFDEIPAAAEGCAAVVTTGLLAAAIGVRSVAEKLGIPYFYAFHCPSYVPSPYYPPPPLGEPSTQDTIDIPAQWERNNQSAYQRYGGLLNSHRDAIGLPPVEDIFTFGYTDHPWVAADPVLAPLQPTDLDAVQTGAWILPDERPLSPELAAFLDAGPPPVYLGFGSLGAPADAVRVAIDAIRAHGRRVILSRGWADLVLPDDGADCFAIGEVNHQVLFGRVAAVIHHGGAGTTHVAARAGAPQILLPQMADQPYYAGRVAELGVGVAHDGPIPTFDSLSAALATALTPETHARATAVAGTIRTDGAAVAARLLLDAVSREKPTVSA
Method for GtfB: Inhibitors, dissolved in DMSO, were added at the indicated concentrations to 20 μL reactions containing 50 nM GtfB, 2 mM UDP-glucose, 75 mM Tricine (pH 9), 4 mM TCEP and 600 μM vancomycin aglycone. For consistency, all reactions contained 5% DMSO. Reactions were incubated at 37° C. for 1.5 hr, then quenched with 20 μL cold methanol and centrifuged at 13,000 rpm for 10 min. Reaction mixtures were resolved by analytical HPLC, using a gradient of 0-45% acetonitrile in water/0.1% TFA over 15 min, at a flow rate of 1 mL per minute. Product formation was monitored by UV absorbance at 285 nm.

With `Nc1ncnc2c1ncn2[C@@H]1O[C@H](COP(=O)(O)OP(=O)(O)O)[C@@H](O)[C@H]1O` [ADP], the “Signal change at 25 μM (drop in fluorescence polarization)” value (shortened to “Signal change at 25 μM”) on MurG [1] is given as less than 10%. In addition, the Kd on MurG [1] (displacement of F1 from MurG) turned out to be 88.2 ± 26.9 µM. The IC50 (in general, the concentration at which inhibition is half-maximal) at MurG [2] is 1260 ± 300 µM.

As for `CC1CCN(CN2C(=O)/C(=C\c3ccc(C(C)(C)C)cc3)SC2=S)CC1` [Compound 1, 5-(4-tert-Butyl-benzylidene)-3-(4-methyl-piperidin-1-ylmethyl)-2-thioxo-thiazolidin-4-one], the IC50 against MurG [3] is 1.4 µM; on OGT (read-out: IC50 OGT), greater than 100 µM; at PBP1b (read-out: IC50 PBP1b), greater than 100 µM; on GtfB, 15 µM. Further, the “inhibition pattern with respect to UDP-GlcNAc” value (shortened to “inhibition pattern”) on MurG [3] is given as “competitive inhibitors”.

`O=C(O)CN1C(=O)/C(=C\c2cc(Cl)cc(Br)c2O)SC1=S` [Compound 2]: the IC50 is 3.4 µM on MurG [3], greater than 100 µM on OGT (read-out: IC50 OGT), greater than 100 µM on PBP1b (read-out: IC50 PBP1b) and 4 µM against GtfB.

For `O=C1/C(=C2/C(=O)N(Cc3ccccc3)c3ccc(Br)cc32)SC(=S)N1CCS(=O)(=O)O` [Compound 3], the IC50 on MurG [3] was 3.5 µM; at OGT (read-out: IC50 OGT) it was greater than 100 µM; on PBP1b (read-out: IC50 PBP1b) it was greater than 100 µM; against GtfB it was 15 µM.

As for `O=C1NC(=O)N(c2ccc(Cl)cc2)C(=O)/C1=C/c1ccc(Br)o1` [Compound 4], the IC50 at MurG [3] is 6.4 µM; against OGT, greater than 100 µM; at PBP1b, greater than 100 µM; on GtfB, 11 µM.

As to `Cc1cc(/C=C2\C(=O)NC(=S)N(c3cccc(Cl)c3)C2=O)c(C)n1-c1cc(C(=O)O)cc(C(=O)O)c1` [Compound 5], the IC50 against MurG [3] is 1.4 µM; against OGT, greater than 100 µM; on PBP1b, greater than 100 µM; against GtfB, 50 µM. Also, at MurG [3], the “inhibition pattern” value is “competitive inhibitors”.

For `CC(C)(C)c1ccc(OCCOc2cccc(C=C3C(=O)NC(=S)NC3=O)c2)cc1` [Compound 6], the IC50 on MurG [3] was 4 µM; at OGT, greater than 100 µM; at PBP1b, greater than 100 µM; against GtfB, 100 µM.

Regarding `O=C(O)c1ccc(N2C(=O)/C(=C/c3ccc(-c4ccc(Br)cc4)o3)C=C2c2ccccc2)cc1` [Compound 7], the IC50 was 5.4 µM against MurG [3], greater than 100 µM at OGT (read-out: IC50 OGT), greater than 100 µM at PBP1b (read-out: IC50 PBP1b) and 100 µM at GtfB. In addition, at MurG [3], the “inhibition pattern” value is “competitive inhibitors”.

For the compound `O=c1ccn([C@@H]2O[C@H](COP(=O)(O)OP(=O)(O)O)[C@@H](O)[C@H]2O)c(=O)[nH]1` [UDP, uridine diphosphate], on MurG [1] (25 μM UDP control well), the “polarization reading relative to wells containing only MurG and labeled donor” value is reported as “approximately 50%”. On MurG [1], the “Signal change at 25 μM” value is reported as 50% and the Kd came out at 2.6 ± 0.2 µM. The inhibition (in general, the drop in the measured response relative to a control, in per cent) at 5 µM at MurG [3] (read-out: inhibition of MurG reaction (drop in product formation)) was determined as 50%. Besides, the IC50 at MurG [2] was 65 ± 1 µM.

With `CC(=O)N[C@H]1[C@@H](OP(=O)(O)OP(=O)(O)OC[C@H]2O[C@@H](n3ccc(=O)[nH]c3=O)[C@H](O)[C@@H]2O)O[C@H](CO)[C@H](O)[C@@H]1O` [UDP-GalNAc], the “Signal change at 25 μM” value on MurG [1] came to 10%. Moreover, the Kd on MurG [1] (displacement of F1 from MurG) was 73.1 ± 14.1 µM. The IC50 on MurG [2] was greater than 1000 µM.

Take `CC(=O)N[C@H]1[C@@H](OP(=O)(O)OP(=O)(O)OC[C@H]2O[C@@H](n3ccc(=O)[nH]c3=O)[C@H](O)[C@@H]2O)O[C@H](CO)[C@@H](O)[C@@H]1O` [UDP-GlcNAc, UDP-N-acetylglucosamine]: the Kd on MurG [1] (displacement of F1 from MurG) came out at 1.8 ± 0.2 µM.

Take `O=c1ccn([C@@H]2O[C@H](COP(=O)(O)O)[C@@H](O)[C@H]2O)c(=O)[nH]1` [UMP]: the “Signal change at 25 μM” value on MurG [1] is less than 10%. Besides, the Kd on MurG [1] (displacement of F1 from MurG) came to 99.6 ± 12.2 µM. For the same compound, at MurG [2], the IC50 was 600 ± 50 µM.
